Assay results reported in patent US8173606B2, “Sulfated oligosaccharide derivatives” (Progen Pharmaceuticals Limited, priority 2004, dated 2012).
Marks after values point to notes of the source that are not given here.

How the values were obtained:
[1] = target: FGF-1 (Homo sapiens, UniProt P05230); assay: SPR based solution affinity assay, growth factor binding (FGF-1); details: heparin-coated sensorchip, HBS-EP buffer, 25° C.; read-out: Kd aFGF
Procedure: (§1) Binding affinities of ligands for the growth factors FGF-1, FGF-2 and VEGF were measured using a surface plasmon resonance (SPR) based solution affinity assay. The principle of the assay is that heparin immobilised on a sensorchip surface distinguishes between free and bound growth factor in an equilibrated solution of the growth factor and a ligand. Upon injection of the solution, the free growth factor binds to the immobilised heparin, is detected as an increase in the SPR response and its concentration thus determined. A decrease in the free growth factor concentration as a function of the ligand concentration allows for the calculation of the dissociation constant, Kd. It is important to note that ligand binding to the growth factors can only be detected when the interaction involves the HS binding site, thus eliminating the chance of evaluating non-specific binding to other sites on the protein. A 1:1 stoichiometry has been assumed for all protein:ligand interactions.
(§2) For the testing of growth factor binding activity, heparin-coated sensorchips were used. Their preparation, via immobilisation of biotinylated BSA-heparin on a streptavidin-coated sensorchip, has been described.[5] Heparin has also been immobilised via aldehyde coupling using either adipic acid dihydrazide or 1,4-diaminobutane. […] Ligands binding to FGF-1 and VEGF were measured in HBS-EP buffer (10 mM HEPES, pH 7.4, 150 mM NaCl, 3.0 mM EDTA and 0.005% (v/v) polysorbate 20), while binding to FGF-2 was measured in HBS-EP buffer containing 0.3 M NaCl.[5] […] For each assay mixture, 50-200 μL of solution was injected at 5-40 μL/min and the relative binding response measured. […]
(§3) Sensorgram data were analysed using the BIAevaluation software (BIAcore). […]
(§4) [formula] and the binding equation[5] can be expressed as
(§5) The Kd values given are the values fit, using the binding equation, to a plot of [P] versus [L]total. Where Kd values were measured in duplicate, the values represent the average of the duplicate measurements. […]

[2] = target: FGF-2 (Homo sapiens, UniProt P09038); assay: SPR based solution affinity assay, growth factor binding (FGF-2); details: heparin-coated sensorchip, HBS-EP buffer containing 0.3 M NaCl, 25° C.; read-out: Kd bFGF
FGF-2, sequence (P09038 143-288, species assumed): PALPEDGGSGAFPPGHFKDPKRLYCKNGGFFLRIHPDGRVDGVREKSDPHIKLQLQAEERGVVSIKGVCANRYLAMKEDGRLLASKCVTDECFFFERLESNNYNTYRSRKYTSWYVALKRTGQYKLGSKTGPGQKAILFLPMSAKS
Procedure: as §1, §2, §3, §4, §5

[3] = target: T1, VEGF (Homo sapiens, UniProt P15692); assay: SPR based solution affinity assay, growth factor binding (VEGF); details: heparin-coated sensorchip, HBS-EP buffer, 25° C.
T1 sequence (P15692 27-191 isoform P15692-4): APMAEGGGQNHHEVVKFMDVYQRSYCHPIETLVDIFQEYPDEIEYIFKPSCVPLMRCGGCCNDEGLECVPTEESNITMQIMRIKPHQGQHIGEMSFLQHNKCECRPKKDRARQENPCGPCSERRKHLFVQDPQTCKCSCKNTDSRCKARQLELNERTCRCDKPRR
Procedure: as §1, §2, §3, §4, §5

[4] = target: T2, heparanase (Homo sapiens, UniProt Q9Y251); assay: Heparanase inhibition, Microcon ultrafiltration assay; assay type: biochemical; details: 3H labelled HS, pH 5.0, 22° C., 2.5 h
T2 sequence (Q9Y251 158-543 limits assumed): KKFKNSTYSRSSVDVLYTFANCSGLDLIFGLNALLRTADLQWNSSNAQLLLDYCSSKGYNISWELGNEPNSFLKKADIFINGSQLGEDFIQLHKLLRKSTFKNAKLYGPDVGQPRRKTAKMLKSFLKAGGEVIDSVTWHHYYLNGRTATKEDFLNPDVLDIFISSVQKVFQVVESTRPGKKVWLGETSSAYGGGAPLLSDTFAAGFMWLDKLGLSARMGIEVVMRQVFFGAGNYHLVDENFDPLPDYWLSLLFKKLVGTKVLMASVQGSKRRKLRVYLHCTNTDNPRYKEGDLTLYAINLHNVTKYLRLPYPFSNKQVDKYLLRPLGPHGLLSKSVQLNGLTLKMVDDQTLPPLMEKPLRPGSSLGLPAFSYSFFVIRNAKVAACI
T2 sequence (Q9Y251 36-109 limits assumed): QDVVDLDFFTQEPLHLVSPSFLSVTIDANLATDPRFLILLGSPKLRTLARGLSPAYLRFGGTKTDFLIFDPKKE
Procedure: The heparanase assays were performed using a Microcon ultrafiltration assay. The assays rely on the principle of physically separating heparan sulfate (HS) that has been digested by heparanase from native HS to determine heparanase activity. The assay uses ultrafiltration devices (Microcon YM-10) to separate the smaller heparanase-cleaved HS fragments from native HS.
A reaction was set up with a volume of 90 μL, • 40 mM acetate buffer (pH 5.0) • 0.1 mg/mL BSA • 90 ng heparanase • 2.5 μM ^3H labelled HS • various concentrations of inhibitors.
The reactions were set up with all components except the ^3H labelled HS and allowed to equilibrate for 10 min at 22° C. The assays were then initiated by adding the HS and immediately 20 μL was taken, mixed with 80 μL of 10 mM phosphate (pH 7.0) and the 100 μL transferred to a Microcon YM-10 concentrator which was then centrifuged at approximately 14000 g for 5 min. The solution that passed through the membrane (filtrate) was retained. This sample was considered the time=0 sample. The assays (now 70 μL in volume) were allowed to react at 22° C. for 2.5 h and then the filtration step was repeated for three aliquots of 20 μL from each assay.
The time=0 filtrate and the three 2.5 h filtrate samples were counted for ^3H. The difference between the time=0 and the averaged 2.5 h samples gave the amount of heparanase activity. All inhibition assays were run with a heparanase standard assay which was identical to the assay composition above except no inhibitor was present and the amount of heparanase inhibition in the other assays determined by comparison with this standard.

[5] = test system: herpes simplex virus (HSV-1) KOS321 strain; assay: Antiviral assay, HSV-1 cell-to-cell spread (plaque area); assay type: cell-based; details: African green monkey kidney cells; compound in overlay medium after infection, 3 days
Description: (§6) In panel A, the results are expressed as a percentage of the number of viral plaque forming units (PFU) formed in cells infected with the compound-treated virions relative to mock-treated controls. In panel B, the results are expressed as a percentage of the average area of 20 viral plaques formed in the continuous presence of compound relative to mock-treated control cells. Monolayer cultures of African green monkey kidney cells[35] and herpes simplex virus (HSV-1) KOS321 strain[36] were used throughout. The antiviral assays on the compounds were performed as described by Nyberg et al.[13] Briefly, the effects of the compounds on the infection of cells by exogenously added virus were tested by mixing serial fivefold dilutions of compound (at 0.032-20 μM) with approximately 200 plaque forming units of the virus. Following incubation of the virus and compound for 10 min at room temperature, the mixture was added to the cells and left on the cell monolayer for 2 h at 37° C. Subsequently, the inoculum was aspirated and replaced with an overlay medium of 1% methylcellulose solution in Eagle's minimum essential medium (EMEM). The viral plaques that developed after incubation of cells for 3 days at 37° C. were stained with 1% crystal violet solution and counted. The effects of the compounds on cell-to-cell spread of HSV-1 were tested by adding serial fivefold dilutions of compound (at 0.032-20 μM) in the serum-free overlay medium to cells after their infection with HSV-1. After incubation of the compound with the cells for 3 days at 37° C., the images of 20 plaques were captured and subjected to area determination using IM500 software (Leica).

[6] = Pharmacokinetic studies of 35S-labelled compounds after iv administration; details: rat; for Urinary Recovery: urine collected 0-48 h
Procedure: The polyol precursors for PG500, 501, 503, 504, 506 and PI-88 (2 mg of each) were desiccated under vacuum over P2O5 for 3 days. Into each vial was syringed 50 μL of a stock solution of 1.77 mg (2.0 mCi) of ^35SO3.pyridine complex and 2 mg SO3.Me3N in 300 μL of anhydrous DMF (Aldrich, redried over freshly ignited 3 A molecular sieves). A further 600 μL of anhydrous DMF was added to the SO3 vial and was distributed to each sample vial. The samples were heated to 60° for 66 hr. SO3.Me3N (14 mg in 300 μL anhydrous DMF) was added to each vessel and the resulting solutions were heated to 60° overnight. The vials were cooled to room temperature and stored at −80° C. awaiting purification.
Each sample was quenched by addition of Na2CO3 (sat. aqu. adjusted to pH 8-9), evaporated to dryness and subjected to SEC (Biogel P2, 2.6×90 cm, flow rate 30 mL/hr, 5 min/fraction). Fractions containing desired material were detected using a G-M counter and DMB test followed by CE.
Male Sprague Dawley rats (250-350 g) were used. The animals were allowed free access to food and water before and during the experiments, during which they were maintained unrestrained in metabolism cages. Rats were anaesthetized with isoflurane (Forthane®). A catheter was inserted in the external jugular vein via an incision in the neck, and was passed under the skin to a second incision in the skin of the back (midline vicinity of the scapulae). This was then exteriorized with the protection of a light metal spring. The incision was closed and the spring fixed to the skin with Michel sutures so that the rats had full range of movement. The animals were carefully monitored during recovery (1-4 h).
All doses were administered as a bolus intravenous injection of 2.5 mg/kg in a dose volume of 2 mL/kg. The total amount of radioactivity administered to each rat was 0.5-10 μCi. The dose level used in this study is 10-fold lower than the no-effect dose previously established for acute toxicity of PI-88. Blood samples (˜250 μL) were collected predose and at 5, 15, 30, 45 min, and 1, 1.5, 2, 4, 8, 12, 24, 36 and 48 h after dosing. The blood samples were immediately centrifuged and the plasma collected. At completion of the experiments, the animals were killed by a lethal overdose of IV pentobarbitone anaesthetic (Nembutal®). Urine was collected from each animal at intervals of 0-12 h, 12-24 h and 24-48 h after dosing. Cage washings (˜15 mL of deionised water) were also collected. At the end of the experiment, bladder contents were aspirated from each animal and added to the 24-48 h voidings. Feces were collected over the same time intervals as the urine.
Aliquots of plasma (100 μL), urine and cage washings (500 μL) were transferred directly to 6 mL polypropylene scintillation vials for determination of radioactivity. Feces collected during each time period (from one animal dosed with each compound) were weighed and homogenised in 4 volumes of deionised water using a mechanical homogeniser. Approximately 1 g (accurately weighed) of this slurry was transferred to a 20 mL glass scintillation vial, 2 mL of tissue solubiliser added and the vials capped and incubated at 60° C. for at least 24 h. Radioactivity was measured following mixing of samples with Packard Ultima Gold liquid scintillation counting cocktail (2.0 mL for plasma and dose, 5.0 mL for urine and cage washings, 10 mL for feces). Counting was conducted on a Packard Tr-Carb liquid scintillation counter. Any result less than three times the background was considered less than the lower limit of quantitation not used in calculations. Plasma, urine and cage washings were counted in triplicate within 5 days of collection and were not corrected for radiochemical decay. Feces were processed as a batch at the completion of the study and the counts from these samples were corrected for radiochemical decay.

[7] = test system: herpes simplex virus (HSV-1) KOS321 strain; assay: Antiviral assay, HSV-1 infectivity (plaque forming units); assay type: cell-based; details: African green monkey kidney cells; virus pre-incubated with compound 10 min
Description: as §6

[8] = iv bolus 2.5 mg/kg, plasma radioactivity

FGF-1, sequence (P05230 whole entry, species assumed): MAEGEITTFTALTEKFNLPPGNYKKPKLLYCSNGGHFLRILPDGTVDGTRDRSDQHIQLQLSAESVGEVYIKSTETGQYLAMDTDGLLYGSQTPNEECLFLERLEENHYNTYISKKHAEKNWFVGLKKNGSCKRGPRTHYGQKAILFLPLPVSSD

With [N-]=[N+]=NC1OC(COS(=O)(=O)O)C(OC2OC(COS(=O)(=O)O)C(OC3OC(COS(=O)(=O)O)C(OC4OC(COS(=O)(=O)O)C(OC5OC(COS(=O)(=O)O)C(OC6OC(COS(=O)(=O)O)C(OS(=O)(=O)O)C(OS(=O)(=O)O)C6OS(=O)(=O)O)C(OS(=O)(=O)O)C5OS(=O)(=O)O)C(OS(=O)(=O)O)C4OS(=O)(=O)O)C(OS(=O)(=O)O)C3OS(=O)(=O)O)C(OS(=O)(=O)O)C2OS(=O)(=O)O)C(OS(=O)(=O)O)C1OS(=O)(=O)O (stereo not drawn) [PG505] the Kd [1] was 0.00196 ± 0.0003 µM, the Kd [2] was 0.137 ± 0.012 µM and the Kd [3] was 0.0048 ± 0.0004 µM. For the same compound, the IC50 [4] was 1.04 ± 0.147 µM.

In the case of PEG5000 Polysulfate [PG504], the IC50 [5] is reported as 11 µM, the “Cl* (apparent)” value ([6]; iv bolus 2.5 mg/kg) is reported as 172 ± 11.8 mL/h/kg and the “Vd* (apparent)” value ([6]; iv bolus 2.5 mg/kg) is reported as 24.9 ± 2.9 mL. The “k* (apparent)” value ([6]; iv bolus 2.5 mg/kg) was 0.247 ± 0.003 h⁻¹, the AUC0-12 h [6, 8] was 14.7 ± 1.2 μg-eq/h · mL and the C0 [6, 8] was 30.5 ± 2.3 μg-eq/mL. The “Urinary Recovery” value ([6]; iv bolus 2.5 mg/kg) was 66.5 ± 9.4 % dose.

With PI-88 [reference compound] the AUC0-12 h ([6]; in vivo, iv, 2.5 mg/kg) was 9.6 ± 1.9 μg-eq/h · mL, the C0 ([6]; in vivo, iv, 2.5 mg/kg) was 17.7 ± 2.23 μg-eq/mL and the “Cl* (apparent)” value ([6]; in vivo, iv, 2.5 mg/kg) was 250 ± 27.6 mL/h/kg. For the same compound, the “Vd* (apparent)” value ([6]; in vivo, iv, 2.5 mg/kg) was 43.1 ± 1.9 mL and the “t1/2* (apparent)” value ([6]; in vivo, iv, 2.5 mg/kg) was 49.8 ± 5.4 min.

With PEG2000 Polysulfate [PG506] the IC50 [7] was 10 µM, the IC50 [5] was 7 µM and the “Cl* (apparent)” value ([6]; iv bolus 2.5 mg/kg) was 404 ± 59.5^ mL/h/kg. For the same compound, the “Vd* (apparent)” value ([6]; iv bolus 2.5 mg/kg) was 44.5 ± 4.5^ mL, the “k* (apparent)” value ([6]; iv bolus 2.5 mg/kg) was 1.17 ± 0.024^ h^−1 and the C0 [6, 8] was 17.1 ± 1.8^ μg-eq/mL. For the same compound, the “AUC0-12 h, calculated over 0-8 h post dose interval only” value ([6]; iv bolus 2.5 mg/kg, 0-8 h post dose interval only) was 6.2 ± 1.0^a μg-eq/h · mL and the “Urinary Recovery” value ([6]; iv bolus 2.5 mg/kg) was 79.1 ± 3.6^ % dose.
